For 27 compounds, EC50 results are on record in patent US10344025B2, “GLS1 inhibitors for treating disease” (Board of Regents, The University of Texas System, priority 2014, dated 2019).

Structures are written as SMILES.

Usually EC50 stands for the concentration needed to bring the measured effect to its halfway point.

The test system of this test is A549 cells. The experiment in a line: Proliferation Assay (A549 viability, Cell Titer Fluor, 72 hours). The test is classed as cell-based. As to conditions: Homo sapiens, A549, 72 h. As to the method:
A549 cells were routinely maintained in RPMI 1640 media (Gibco catalog number 11875-093) supplemented with 10% dialyzed fetal bovine serum using a humidified incubator (37° C., 5% CO2 and ambient O2). In preparation for the viability assay, cells were inoculated into 384-well black CulturPlates (Perkin Elmer) at a density of 1000 cells/well in a volume of 40 uL. Following a 24-hour incubation at 37° C., 5% CO2 and ambient O2, cells were treated with compound (10 uL) in a final DMSO concentration of 0.5% (v/v). The microplates were then incubated for 72 hours (37° C., 5% CO2 and ambient O2). Cell Titer Fluor (Promega) was subsequently added (10 uL of 6× reagent) and mixed for 15 minutes at room temperature. The plates were then incubated for 30 minutes (37° C., 5% CO2 and ambient O2) and fluorescence was subsequently read on the Perkin Elmer Envision plate reader. IC50 values were calculated using a four-parameter logistic curve fit.
Non-limiting examples include the following compounds and pharmaceutically acceptable salts thereof. […] “ND” indicates no data.

The compound `CNC(=O)c1cn(CCCCc2ccc(NC(=O)Cc3cc(C(F)(F)F)ccn3)nn2)nn1` [Example 210, N-methyl-1-(4-(6-(2-(4-(trifluoromethyl)pyridin-2-yl)acetamido)pyridazin-3-yl)butyl)-1H-1,2,3-triazole-4-carboxamide] showed a concentration giving a half-maximal response (EC50) of 100 to 500 nM. For `COc1cncc(CNC(=O)c2cn(CC(F)CCc3nnc(NC(=O)Cc4cccc(OC(F)(F)F)c4)s3)nn2)c1` (stereo not drawn) [Example 222, 1-(2-fluoro-4-(5-(2-(3-(trifluoromethoxy)phenyl)acetamido)-1,3,4-thiadiazol-2-yl)butyl)-N-((5-methoxypyridin-3-yl)methyl)-1H-1,2,3-triazole-4-carboxamide] the value was under 100 nM; for `CNC(=O)c1cn(CCCCc2ccc(NC(=O)Cc3cc(OCC(F)(F)F)ccn3)nn2)nn1` [Example 225, N-methyl-1-(4-(6-(2-(4-(2,2,2-trifluoroethoxy)pyridin-2-yl)acetamido)pyridazin-3-yl)butyl)-1H-1,2,3-triazole-4-carboxamide], 100 to 500 nM.

The compound `O=C(Cc1cncc(OC2CC(F)(F)C2)c1)Nc1ccc(CCCCn2cc(C(=O)NCc3cc(C(F)(F)F)ccn3)nn2)nn1` [Example 230, 1-(4-(6-(2-(5-(3,3-difluorocyclobutoxy)pyridin-3-yl)acetamido)pyridazin-3-yl)butyl)-N-((4-(trifluoromethyl)pyridin-2-yl)methyl)-1H-1,2,3-triazole-4-carboxamide] displayed an EC50 of under 100 nM.

The compound `O=C(Cc1cncc(OC2CC(F)(F)C2)c1)Nc1ccc(CCCCn2cc(C(=O)NCc3ccccn3)nn2)nn1` [Example 231, 1-(4-(6-(2-(5-(3,3-difluorocyclobutoxy)pyridin-3-yl)acetamido)pyridazin-3-yl)butyl)-N-(pyridin-2-ylmethyl)-1H-1,2,3-triazole-4-carboxamide] yielded an EC50 of under 100 nM.

`CNC(=O)c1cn(CC(F)CCc2ccc(NC(=O)Cc3cc(-c4cccc(OC(F)(F)F)c4)ccn3)nn2)nn1` (stereo not drawn) [Example 242, 1-(2-fluoro-4-(6-(2-(4-(3-(trifluoromethoxy)phenyl)pyridin-2-yl)acetamido)pyridazin-3-yl)butyl)-N-methyl-1H-1,2,3-triazole-4-carboxamide] gave an EC50 of under 100 nM. To `CNC(=O)c1cn(CC(F)CCc2ccc(NC(=O)Cc3cc(C(F)(F)F)ccn3)nn2)nn1` (stereo not drawn) [Example 248, 1-(2-fluoro-4-(6-(2-(4-(trifluoromethyl)pyridin-2-yl)acetamido)pyridazin-3-yl)butyl)-N-methyl-1H-1,2,3-triazole-4-carboxamide] belongs under 100 nM. `CNC(=O)c1cn(CC(F)CCc2ccc(NC(=O)Cc3cc(OC4CC(F)(F)C4)ccn3)nn2)nn1` (stereo not drawn) [Example 252, 1-(4-(6-(2-(4-(3,3-difluorocyclobutoxy)pyridin-2-yl)acetamido)pyridazin-3-yl)-2-fluorobutyl)-N-methyl-1H-1,2,3-triazole-4-carboxamide]: the EC50 was under 100 nM. For `CNC(=O)c1cn(C[C@H](F)CCc2ccc(NC(=O)Cc3ccccn3)nn2)nn1` [Example 254, (R)-1-(2-fluoro-4-(6-(2-(pyridin-2-yl)acetamido)pyridazin-3-yl)butyl)-N-methyl-1H-1,2,3-triazole-4-carboxamide] the value was 100 to 500 nM; for `CNC(=O)c1cn(C[C@H](F)CCc2ccc(NC(=O)Cc3cc(-c4cccc(OC(F)(F)F)c4)ccn3)nn2)nn1` [Example 255, (R)-1-(2-fluoro-4-(6-(2-(4-(3-(trifluoromethoxy)phenyl)pyridin-2-yl)acetamido)pyridazin-3-yl)butyl)-N-methyl-1H-1,2,3-triazole-4-carboxamide], under 100 nM; for `CNC(=O)c1cn(C[C@@H](F)CCc2ccc(NC(=O)Cc3ccccn3)nn2)nn1` [Example 256, (S)-1-(2-fluoro-4-(6-(2-(pyridin-2-yl)acetamido)pyridazin-3-yl)butyl)-N-methyl-1H-1,2,3-triazole-4-carboxamide], 100 to 500 nM. For `CNC(=O)c1cn(C[C@@H](F)CCc2ccc(NC(=O)Cc3cc(-c4cccc(OC(F)(F)F)c4)ccn3)nn2)nn1` [Example 257, (S)-1-(2-fluoro-4-(6-(2-(4-(3-(trifluoromethoxy)phenyl)pyridin-2-yl)acetamido)pyridazin-3-yl)butyl)-N-methyl-1H-1,2,3-triazole-4-carboxamide] the value was under 100 nM. For `CNC(=O)c1cn(C[C@@H](F)CCc2ccc(NC(=O)Cc3cc(C(F)(F)F)ccn3)nn2)nn1` [Example 260, (S)-1-(2-fluoro-4-(6-(2-(4-(trifluoromethyl)pyridin-2-yl)acetamido)pyridazin-3-yl)butyl)-N-methyl-1H-1,2,3-triazole-4-carboxamide] the value was under 100 nM; for `CNC(=O)c1cn(CCCCc2ccc(NC(=O)Cc3cc(OC4CC(F)(F)C4)ccn3)nn2)nn1` [Example 261, 1-(4-(6-(2-(4-(3,3-difluorocyclobutoxy)pyridin-2-yl)acetamido)pyridazin-3-yl)butyl)-N-methyl-1H-1,2,3-triazole-4-carboxamide], under 100 nM; for `CNC(=O)c1cn(CC(F)CCc2ccc(NC(=O)Cc3cc(C(F)(F)F)cc(C)n3)nn2)nn1` (stereo not drawn) [Example 264, 1-(2-fluoro-4-(6-(2-(6-methyl-4-(trifluoromethyl)pyridin-2-yl)acetamido)pyridazin-3-yl)butyl)-N-methyl-1H-1,2,3-triazole-4-carboxamide], under 100 nM. Turning to `CNC(=O)c1cn(CC(F)CCc2ccc(NC(=O)Cc3cc(OC(C)C(F)(F)F)ccn3)nn2)nn1` (stereo not drawn) [Example 266, 1-(2-fluoro-4-(6-(2-(4-((1,1,1-trifluoropropan-2-yl)oxy)pyridin-2-yl)acetamido)pyridazin-3-yl)butyl)-N-methyl-1H-1,2,3-triazole-4-carboxamide], the EC50 is under 100 nM. Regarding `CNC(=O)c1cn(C[C@H](F)CCc2ccc(NC(=O)Cc3cc(C(F)(F)F)cc(C)n3)nn2)nn1` [Example 268, (R)-1-(2-fluoro-4-(6-(2-(6-methyl-4-(trifluoromethyl)pyridin-2-yl)acetamido)pyridazin-3-yl)butyl)-N-methyl-1H-1,2,3-triazole-4-carboxamide], the EC50 was under 100 nM. Take `CNC(=O)c1cn(C[C@H](F)CCc2ccc(NC(=O)Cc3cc(OC4CC(F)(F)C4)ccn3)nn2)nn1` [Example 272, (R)-1-(4-(6-(2-(4-(3,3-difluorocyclobutoxy)pyridin-2-yl)acetamido)pyridazin-3-yl)-2-fluorobutyl)-N-methyl-1H-1,2,3-triazole-4-carboxamide]: the EC50 is under 100 nM. To `CC(C)NC(=O)c1cn(CCCCc2ccc(NC(=O)Cc3cccc(OC(F)(F)F)c3)nn2)nn1` [Example 526, N-(propan-2-yl)-1-[4-(6-{2-[3-(trifluoromethoxy)phenyl]acetamido}pyridazin-3-yl)butyl]-1H-1,2,3-triazole-4-carboxamide] belongs 500 to 5000 nM; to `N#CCNC(=O)c1cn(CCCCc2ccc(NC(=O)Cc3cccc(OC(F)(F)F)c3)nn2)nn1` [Example 527, N-(cyanomethyl)-1-[4-(6-{2-[3-(trifluoromethoxy)phenyl]acetamido}pyridazin-3-yl)butyl]-1H-1,2,3-triazole-4-carboxamide], under 100 nM. `O=C(Cc1cccc(OC(F)(F)F)c1)Nc1ccc(CCCCn2cc(C(=O)NCCO)nn2)nn1` [Example 528, N-(2-hydroxyethyl)-1-[4-(6-{2-[3-(trifluoromethoxy)phenyl]acetamido}pyridazin-3-yl)butyl]-1H-1,2,3-triazole-4-carboxamide] displayed an EC50 of 500 to 5000 nM.

As for `O=C(Cc1cccc(OC(F)(F)F)c1)Nc1ccc(CCCCn2cc(C(=O)NCc3ccccn3)nn2)nn1` [Example 529, N-(pyridin-2-ylmethyl)-1-[4-(6-{2-[3-(trifluoromethoxy)phenyl]acetamido}pyridazin-3-yl)butyl]-1H-1,2,3-triazole-4-carboxamide], the EC50 is under 100 nM. Consider `CNC(=O)c1cn(CCCCc2ccc(NC(=O)Cc3cccnc3)nn2)nn1` [Example 541, N-methyl-1-(4-{6-[2-(pyridin-3-yl)acetamido]pyridazin-3-yl}butyl)-1H-1,2,3-triazole-4-carboxamide], for which the EC50 was in the range of 500 to 5000 nM. `CNC(=O)c1cn(CCCCc2ccc(NC(=O)Cc3ccc(Cl)nc3)nn2)nn1` [Example 544, 1-(4-{6-[2-(6-chloropyridin-3-yl)acetamido]pyridazin-3-yl}butyl)-N-methyl-1H-1,2,3-triazole-4-carboxamide]: the EC50 lay in the range of 100 to 500 nM. For `CNC(=O)c1cn(CCCCc2ccc(NC(=O)Cc3cncc(Br)c3)nn2)nn1` [Example 546, 1-(4-{6-[2-(5-bromopyridin-3-yl)acetamido]pyridazin-3-yl}butyl)-N-methyl-1H-1,2,3-triazole-4-carboxamide] the value was 100 to 500 nM; for `CC(C)(O)CNC(=O)c1cn(CCCCc2ccc(NC(=O)Cc3cccc(OC(F)(F)F)c3)nn2)nn1` [Example 549, N-(2-hydroxy-2-methylpropyl)-1-[4-(6-{2-[3-(trifluoromethoxy)phenyl]acetamido}pyridazin-3-yl)butyl]-1H-1,2,3-triazole-4-carboxamide], 500 to 5000 nM; for `COCCNC(=O)c1cn(CCCCc2ccc(NC(=O)Cc3cccc(OC(F)(F)F)c3)nn2)nn1` [Example 551, N-(2-methoxyethyl)-1-[4-(6-{2-[3-(trifluoromethoxy)phenyl]acetamido}pyridazin-3-yl)butyl]-1H-1,2,3-triazole-4-carboxamide], 100 to 500 nM.
